Measured values from patent US20150038430A1, “THERAPEUTIC PEPTIDOMIMETIC MACROCYCLES” (AILERON Therapeutics, Inc., priority 2008, published 2015).

Legend:
A375 = format: cell-based, human; conditions: 24 h
Protocol: (§1) Cell viability assays shown in FIGS. 34-52 were performed according to a similar protocol. Cells were split at optimal cell density a day prior to the initiation of the study. The next day, cells were washed twice in serum-free Opti-MEM media and 4000 cells/well were added to each well in a final volume of […] Opti-MEM. For serum-free experiments, macrocycles were diluted from 2 mM stocks (100% DMSO) in sterile water to prepare 400 μM working solutions. A 40 μM solution was then generated by ten-fold dilution in assay buffer. The macrocycle and controls were then serially diluted two-fold in assay buffer in dosing plates to provide concentrations between 1.2 and 40 μM, respectively. For experiments in 2% human serum, macrocycles were diluted from 10 mM stocks (100% DMSO) in sterile water to prepare 1 mM working solutions. A 100 μM solution was generated by ten-fold dilution in assay buffer. The macrocycles and controls were then serially diluted two-fold in assay buffer in dosing plates to provide concentrations between 3 and 100 μM, respectively. 50 μl of each dilution was then added to the appropriate wells of the test plate to achieve final concentrations of the macrocycle between 0.6 to 20 μM (for serum free experiment) or 1.5 to 50 μM (for 2% serum experiment), respectively. Controls included wells without macrocycles containing the same concentration of DMSO as the macrocycle-containing wells, wells containing 0.1% Triton X-100, and wells containing no cells. Plates were incubated for 24 hours at 37° C. in a humidified 5% CO2 atmosphere. At the end of a 24 hr incubation period, a CellTiter-Glo Luminescent Cell Viability Assay was performed according to manufacturer's instructions (Promega, catalog #G7571) and the luminescence was measured using a BIO-TEK synergy HT Plate reader. Values were plotted as percent viable, i.e. as a percentage of the negative control value (derived from cells exposed to DMSO only). All assays were performed in duplicate.
(§2) The following tables summarize the EC50 values (μM) observed with peptidomimetic macrocycles of the invention in various cell lines: […]

OVCAR8 = format: cell-based, human; conditions: 24 h
Protocol: as §1, §2

NCI-H82 (SCLC-MCL1+) = format: cell-based, human; conditions: 24 h
Protocol: as §1, §2

RS4;11 = format: cell-based, human; conditions: 24 h
Protocol: as §1, §2

Molt-4 = format: cell-based, human; conditions: 24 h
Protocol: as §1, §2

Jurkat = format: cell-based, human; conditions: 24 h
Protocol: as §1, §2

MM1S = format: cell-based, human; conditions: 24 h
Protocol: as §1, §2

PC3 = format: cell-based, human; conditions: 24 h
Protocol: as §1, §2

MDA-MB231-Met = format: cell-based, human; conditions: 24 h
Protocol: as §1, §2

DHL-6 = format: cell-based, human; conditions: 24 h
Protocol: as §1, §2

Raji = format: cell-based, human; conditions: 24 h
Protocol: as §1, §2

SEMK2 = format: cell-based, human; conditions: 24 h
Protocol: as §1, §2

Bcl-xL = Bcl-xL (Homo sapiens, UniProt Q07817); test: Protein-ligand binding experiment (SEC-LC-MS); conditions: 1 μM macrocycle plus 5 μM Bcl-xL, 60 min room temperature
Sequence of Bcl-xL (Q07817 whole entry): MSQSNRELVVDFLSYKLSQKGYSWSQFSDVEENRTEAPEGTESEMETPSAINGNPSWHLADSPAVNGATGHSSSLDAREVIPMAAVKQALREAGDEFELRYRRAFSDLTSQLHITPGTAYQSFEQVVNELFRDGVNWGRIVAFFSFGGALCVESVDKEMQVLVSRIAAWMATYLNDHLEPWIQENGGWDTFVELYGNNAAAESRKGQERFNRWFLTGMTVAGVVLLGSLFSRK
Protocol: Protein-ligand binding experiments were conducted according to the following representative procedure outlined for a system-wide control experiment using 1 μM SP-4 plus 5 μM Bcl-xL. A 1 μl DMSO aliquot of a 40 μM stock solution of peptidomimetic macrocycle was dissolved in 19 μl of PBS (Phosphate-buffered saline: 50 mM, pH 7.5 Phosphate buffer containing 150 mM NaCl). The resulting solution was mixed by repeated pipetting and clarified by centrifugation at 10 000 g for 10 min. To a 4 μl aliquot of the resulting supernatant was added 4 μl of 10 μM BCL-xL in PBS. Each 8.0 μl experimental sample thus contained 40 pmol (1.5 μg) of protein at 5.0 μM concentration in PBS plus 1 μM peptidomimetic macrocycle and 2.5% DMSO. Duplicate samples thus prepared for each concentration point were incubated for 60 min at room temperature, and then chilled to 4° C. prior to size-exclusion chromatography-LC-MS analysis of 5.0 μL injections. Samples containing a target protein, protein-ligand complexes, and unbound compounds were injected onto an SEC column, where the complexes were separated from non-binding component by a rapid SEC step. The SEC column eluate was monitored using UV detectors to confirm that the early-eluting protein fraction, which elutes in the void volume of the SEC column, was well resolved from unbound components that are retained on the column. […]

BAX = target: T1, BAX (Homo sapiens, UniProt Q07812); test: Immunoprecipitation in MM1S cell lysates; format: binding; conditions: multiple myeloma (MM1S) cell lysates
T1 construct: endogenous in cells; host or cells: MM1S multiple myeloma cells (lysate)
T1 sequence (Q07812 whole entry): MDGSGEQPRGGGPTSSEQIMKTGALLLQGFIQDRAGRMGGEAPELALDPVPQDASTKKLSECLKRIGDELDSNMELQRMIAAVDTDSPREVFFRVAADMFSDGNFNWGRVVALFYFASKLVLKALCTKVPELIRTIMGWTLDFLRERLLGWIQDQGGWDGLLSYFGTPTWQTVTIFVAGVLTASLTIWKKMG
Protocol: It is possible to measure binding of peptides or peptidomimetic macrocycles to their natural acceptors in cell lysates or intact cells by immunoprecipitation and pull-down experiments. For example, intact cells are incubated with fluoresceinated (FITC-labeled) or biotinylated compounds for 4 hrs in the absence of serum, followed by serum replacement and further incubation that ranges from 4-18 hrs. Alternatively, cells can be incubated for the duration of the experiment in Opti-MEM (Invitrogen). Cells are then pelleted and incubated in lysis buffer (50 mM Tris [pH 7.6], 150 mM NaCl, 1% CHAPS and protease inhibitor cocktail) for 10 minutes at 4° C. 1% NP-40 or Triton X-100 may be used instead of CHAPS. Extracts are centrifuged at 14,000 rpm for 15 minutes and supernatants collected and incubated with 10 μl goat anti-FITC antibody or streptavidin-coated beads for 2 hrs, rotating at 4° C. followed by further 2 hrs incubation at 4° C. with protein A/G Sepharose (50 μl of 50% bead slurry).). No secondary step is necessary if using streptavidin beads to pull down biotinylated compounds. […]

`CC[C@H](C)[C@H](NC(C)=O)C(=O)N[C@@H](Cc1c[nH]c2ccccc12)C(=O)N[C@H](C(=O)N[C@@H](C)C(=O)N[C@@H](CCC(N)=O)C(=O)N[C@@H](CCC(=O)O)C(=O)N[C@@H](CC(C)C)C(=O)N[C@@H](CCCNC(=N)N)C(=O)NC1(C)CCCC=CCCCC(C)(C(=O)N[C@@H](Cc2ccccc2)C(=O)N[C@@H](CC(N)=O)C(=O)N[C@@H](C)C(=O)N[C@@H](Cc2ccc(O)cc2)C(=O)N[C@@H](Cc2ccc(O)cc2)C(=O)N[C@@H](C)C(=O)N[C@@H](CCCNC(=N)N)C(=O)N[C@@H](CCCNC(=N)N)C(N)=O)NC(=O)[C@H](CC(=O)O)NC(=O)CNC(=O)[C@H]([C@@H](C)CC)NC1=O)[C@@H](C)CC` (some centres unmarked) [SP-4] gave an EC50 (A375) of 8 µM, an EC50 (OVCAR8) of 20 µM and an EC50 (NCI-H82 (SCLC-MCL1+)) of 4.9 µM. It also gave an EC50 (RS4;11) of 10 µM, an EC50 (Molt-4) of 2.2 µM and an EC50 (Jurkat) of 1.6 µM. It also gave an EC50 (MM1S) of 4.9 µM, an EC50 (PC3) of 5 µM and an EC50 (MDA-MB231-Met) of 8.5 µM. The EC50 (DHL-6) was 3.8 µM, the EC50 (Raji) was 9 µM and the EC50 (SEMK2) was 4 µM. The “detection of protein-ligand complex with Bcl-xL” value (Bcl-xL) was “detection of the protein-ligand complex” and the “binding to pro-apoptotic target protein BAX” value (BAX) was “sequence-specific and structure-specific binding”.
